Reference: article PMC7504721, “Targeting the Initiator Protease of the Classical Pathway of Complement Using Fragment-Based Drug Discovery” (Molecules, 2020)

Molecular target: T1, full-length C1r (Homo sapiens, UniProt P00736)
T1 construct: purchased Complement Technology (CompTech)
T1 sequence (P00736 18-463 limits assumed): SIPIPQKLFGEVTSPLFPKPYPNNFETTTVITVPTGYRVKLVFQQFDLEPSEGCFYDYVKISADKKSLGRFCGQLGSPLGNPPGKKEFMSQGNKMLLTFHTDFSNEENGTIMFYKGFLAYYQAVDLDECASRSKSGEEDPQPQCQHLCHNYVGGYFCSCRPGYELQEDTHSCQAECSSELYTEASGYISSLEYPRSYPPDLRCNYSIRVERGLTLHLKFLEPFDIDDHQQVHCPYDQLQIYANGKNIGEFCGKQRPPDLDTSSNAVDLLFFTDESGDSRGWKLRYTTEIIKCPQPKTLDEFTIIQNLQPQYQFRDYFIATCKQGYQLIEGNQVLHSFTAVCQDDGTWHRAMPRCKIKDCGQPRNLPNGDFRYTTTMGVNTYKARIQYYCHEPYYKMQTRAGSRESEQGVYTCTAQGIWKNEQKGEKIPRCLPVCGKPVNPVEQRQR
T1 sequence (P00736 464-705 limits assumed): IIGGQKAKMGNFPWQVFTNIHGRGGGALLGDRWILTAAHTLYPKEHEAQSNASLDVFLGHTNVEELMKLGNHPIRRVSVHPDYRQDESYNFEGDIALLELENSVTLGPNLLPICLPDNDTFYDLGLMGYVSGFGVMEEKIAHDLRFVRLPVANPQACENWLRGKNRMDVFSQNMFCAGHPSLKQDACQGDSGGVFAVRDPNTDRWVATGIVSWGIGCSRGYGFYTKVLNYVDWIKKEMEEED
Assay: SPR dose-dependent binding, steady-state affinity
Conditions: for Kd: 1:1 steady-state binding model, mean ± S.D. from three independent injection series, 25 °C; for Ligand efficiency (LE): LE = ΔG/number of non-hydrogen atoms, ΔG = -RT x ln KD,C1r, using KD values of Fig. 3
Protocol: All SPR experiments were carried out using a Biacore T200 (GE Healthcare, Chicago, IL, USA) at 25 °C. For all experiments, a running buffer (HBS-T) of 20 mM HEPES (pH 7.3), 140 mM NaCl, 0.005% (v/v) Tween-20, 5% DMSO (v/v) was used. For each experiment, DMSO calibration curves ranging from 4% to 5.5% DMSO (v/v) were collected at the beginning, end, and every 50 cycles throughout the duration of the experiment. All experiments were performed using HC1500M sensor chips (Xantec, Duesseldorf, Germany). In total, 10 sensor chips and 16 ligand immobilized surfaces were created over the course of this study (detailed in Table S2). In all cases, C1r proteins were immobilized onto chip surfaces using amine-coupling chemistry with 1-ethyl-3-(3-dimethylaminopropyl)-carbodiimide) (EDC), N-hydroxysuccinimide (NHS), followed by ethanolamine. Briefly, 100 mM of EDC and NHS were mixed and injected to activate the chip surface followed by the C1r protein ligand captured at a defined resonance unit (RU) level, followed by reaction quenching with 100 mM ethanolamine pH 8.5. Flow cell 1 was always used as a reference cell (no ligand), unless otherwise noted. All sensorgrams were reference and blank subtracted and analyzed using T200 Evaluation Software (GE Healthcare, Chicago, IL, USA).
To further evaluate hit compounds from the initial SPR screen, dose-dependent SPR binding assays were carried out. Three replicate flow cells were used containing both low and high immobilization densities of C1r (see Table S2). Hit compounds were tested for dose-dependent binding to full-length C1r using a compound concentration range of 7.8–500 µM. T200 evaluation software was used to calculate steady-state affinities for each compound by fitting sensorgrams from each variable concentration injection dataset using a 1:1 Langmuir model of interaction constrained by a theoretical experimental binding response based on the mol. wt. of each compound and derived as stated above. KD values are reported as the mean ± the standard deviation from at least three independent measurements.

SMILES: N=C(N)c1ccc2cc(OC(=O)c3ccc(N=C(N)N)cc3)ccc2c1 [Futhan, reference compound]
- Kd: 11 µM

SMILES: COCc1nc(-c2ccc(OC3CNC3)cc2)no1 [CMP-1696]
- Kd: 670 µM
- Ligand efficiency (LE): 0.22

SMILES: CN(C)c1cc(N2CCCC(N)C2)ncn1 (centres unmarked) [CMP-1611]
- Kd: 480 µM
- Ligand efficiency (LE): 0.28
